# Assay results from ChEMBL document CHEMBL1165963, “Bryonolic acid: a large-scale isolation and evaluation of heme oxygenase 1 expression in activated macrophages” (2010).
# Active and inactive are the calls of the source. The rule behind the calls is not given here.
# Columns and labels:
# RAW264.7 [1] = test: Immunomodulatory effect in LPS-stimulated mouse RAW264.7 cells assessed as increase in heme oxygenase 1 expression after 24 hrs by Western blot; format: functional, cell-based
# RAW264.7 [2] = test: Immunomodulatory effect in LPS-stimulated mouse RAW264.7 cells assessed as increase in heme oxygenase 1 expression at 50 uM after 24 hrs by Western blot relative to LPS; format: functional
# RAW264.7 [3] = test: Immunomodulatory effect in LPS-stimulated mouse RAW264.7 cells assessed as increase in heme oxygenase 1 expression at 50 uM after 24 hrs by Western blot relative to untreated control; format: functional
# RAW264.7 [4] = test: Immunomodulatory effect in LPS-stimulated mouse RAW264.7 cells assessed as increase in heme oxygenase 1 expression at 100 uM after 24 hrs by Western blot relative to LPS; format: functional
# RAW264.7 [5] = test: Immunomodulatory effect in LPS-stimulated mouse RAW264.7 cells assessed as increase in heme oxygenase 1 expression at 100 uM after 24 hrs by Western blot relative to untreated control; format: functional
# RAW264.7 [6] = test: Effect on iNOS expression in mouse RAW264.7 cells after 24 hrs by Western blot; format: functional, cell-based
# RAW264.7 [7] = test: Effect on COX2 expression in mouse RAW264.7 cells after 24 hrs by Western blot; format: functional, cell-based
smiles,measurement,setting,value
CC1(C)[C@@H](O)CC[C@]2(C)C3=C(CC[C@@H]12)[C@@]1(C)CC[C@@]2(C)CC[C@@](C)(C(=O)O)C[C@H]2[C@]1(C)CC3 [BRYONOLIC ACID],Activity,RAW264.7 [1],Dose-dependent effect
same,fold change (FC),RAW264.7 [2],3.3
same,fold change (FC),RAW264.7 [3],13
same,fold change (FC),RAW264.7 [4],14
same,fold change (FC),RAW264.7 [5],55
same,Activity,RAW264.7 [6],inactive
same,Activity,RAW264.7 [7],inactive
